This is an account of results in patent publication US20050154036A1, “Methods of using zonisamide as an adjunctive therapy for partial seizures” (Eisai Co., Ltd., priority 2004, published 2005).

For data set [1] the following is noted: cited from earlier work; for hyperammonemia as adverse effect: literature.
For data set [2] the following is noted: human, in vivo. The source says: The pharmacovigilance data that were collected, reviewed and analyzed provided the following information in respect of the incidence of hyperammonemia. A total of 4 cases fulfilled the criteria of potential hyperammonemia cases. These cases were reviewed in detail for evaluation of possible safety signals. Two US cases were reported as either high ammonia levels or increased ammonia. Two Japanese cases were reported as hyperammonemia.
Of these, two (2) cases (both ZON1000262 and ZON1000346) had strong confounding factors and seem to be unrelated to zonisamide, but the possibility of zonisamide involvement cannot be completely excluded. The two cases of hyperammonemia originated from Japan and both involved adult patients. Both cases were serious and described as life-threatening. […]
Estimates of exposure, based upon retail and mail order prescriptions, indicate that the number of unique patients taking zonisamide capsules in the U.S. is about 37,276 (total prescriptions per year/average number of prescriptions per patient per year less a calculated percentage decrease based on estimated annual dropouts) in the time between approval in 2000 and December 2002. […] Similarly, the incidences of NMS estimated herein are unlikely to be higher than calculated. Based on the exposure data and number of hyperammonemia cases, the incidence of hyperammonemia is calculated to be about […].

The subject of the next data set is sodium channels. Conditions: in vitro; cited from earlier work.
Another data set concerns T-type Ca2+ currents. Conditions: in vitro; cited from earlier work.
Data set [3] deals with GABA/benzodiazepine receptor ionophore complex. Particulars: in vitro; cited from earlier work.
The test system of data set [4] is cultured mouse spinal cord neurons. Conditions: 10-30 μg/mL; cited from earlier work.
Another data set concerns rat hippocampal slices. Particulars: 10-30 μg/mL; cited from earlier work.
Data set [5] concerns dopaminergic and serotonergic neurotransmission. Particulars: in vivo microdialysis; cited from earlier work.
For data set [6] the following is noted: cited from earlier work.
Another data set has as its system carbonic anhydrase. Conditions: fraction of the inhibition by acetazolamide; cited from earlier work.

For the compound `NC(=O)N1c2ccccc2C=Cc2ccccc21` [carbamazepine], in data set [1], the “hyperammonemia as adverse effect” value is recorded as “known to cause hyperammonemia”.

With `CCCC(CCC)C(=O)O` [valproate], the “hyperammonemia as adverse effect” value in data set [1] is “known to cause hyperammonemia”. Moreover, the “cases of hyperammonemia associated with the drug” value in data set [1] (since 1979, O'Neil et al. 2002) was “more than 30 cases”.

As for `NS(=O)(=O)Cc1noc2ccccc12` [zonisamide, 1,2-benzisoxazole-3-methanesulfonamide], in [2], the “cases fulfilling the criteria of potential hyperammonemia cases” value amounted to 4 cases and the incidence of hyperammonemia result is recorded as “about 1:1,222,453”. In addition, the “effect on sodium channels” value in the data set on sodium channels is listed as “blocks sodium channels”. Moreover, the “effect on voltage-dependent, transient inward currents (T-type Ca2+ currents)” value in the data set on T-type Ca2+ currents is “reduces”. In data set [3], the “binding to the GABA/benzodiazepine receptor ionophore complex” value is “binds to the GABA/benzodiazepine receptor ionophore complex in an allosteric fashion” and the “changes in chloride flux” value is on record as “does not produce changes in chloride flux”. Also, in data set [4], the “postsynaptic GABA or glutamate responses” value is listed as “without affecting” and the synaptically-driven electrical activity is reported as “suppresses”. Besides, in the data set with rat hippocampal slices, the “neuronal or glial uptake of [3H]-GABA” value is “without affecting”. Further, in data set [5], the “dopaminergic and serotonergic neurotransmission” value is listed as “facilitates”. Further, the hepatic enzyme induction entry in data set [6] (in vivo) is given as “not known to be a hepatic enzyme inducer”. The “time required to achieve steady-state levels” value in data set [6] (upon reaching a stable dose or following dosage adjustment) is “up to two weeks”. Besides, the “carbonic anhydrase inhibition compared to acetazolamide” value with carbonic anhydrase is 1/50.
